# Measurements published in patent US8937072B2, “Substituted cyanoaniline compounds, preparation and use thereof” (Sinochem Corporation, priority 2011, dated 2015).
# Where “and” joins values, the source holds several entries; their conditions need not be identical. Equal values may be shown once.
# Tested on: cucumber downy mildew
# Experiment: Protectant activity in vivo (whole plant) against cucumber downy mildew
# Method: The method is as followed: The whole plant is used in this test. The compound is dissolved in a proper solvent to get mother solution. The proper solvent is selected from acetone, methanol, DMF and so on according to their dissolving capability to the sample. The volume rate of solvent and testing solution (v/v) is equal to or less than 5%. The mother solution is diluted with water containing 0.1% tween-80 to get the testing solution whose concentration is designed. The testing solution is sprayed to the host plant by a special plant sprayer. The plant is inoculated with fungus after 24 hours. According to the infecting characteristic of fungus, the plant is stored in a humidity chamber and then transferred into greenhouse after infection is finished. And the other plants are placed in greenhouse directly. The activity of compound is obtained by eyeballing after 7 days in common.
SMILES,protectant activity against cucumber downy mildew in vivo (dose 400 mg/L),also measured
N#Cc1c(Cl)c(Cl)c(Nc2ccc([N+](=O)[O-])cc2[N+](=O)[O-])c(C#N)c1Cl [Compound B-37],100%,–
COC(=O)c1ccc(Nc2c(Cl)c(Cl)c(C#N)c(C#N)c2Cl)cc1 [Compound A-11],100%,–
N#Cc1cc([N+](=O)[O-])cc(Br)c1Nc1c(F)c(F)c(C#N)c(F)c1C#N [Compound B-116],100%,–
N#Cc1c(F)c(F)c(Nc2c(Br)cc([N+](=O)[O-])cc2Br)c(C#N)c1F [Compound B-115],100%,–
N#Cc1c(F)c(F)c(Nc2ccc([N+](=O)[O-])cc2Cl)c(C#N)c1F [Compound B-95],100%,–
N#Cc1c(Cl)c(Cl)c(C#N)c(Nc2ccc([N+](=O)[O-])cc2Cl)c1Cl [Compound C-28],100%,–
N#Cc1c(Cl)c(Cl)c(Nc2c(Cl)cc([N+](=O)[O-])cc2Cl)c(Cl)c1C#N [Compound A-44],100%,protectant activity against cucumber downy mildew in vivo (dose 100 mg/L): 100%
N#Cc1c(Cl)c(Cl)c(C#N)c(Nc2ccc(OC(F)(F)F)cc2)c1Cl [Compound C-13],100%,–
COc1cc([N+](=O)[O-])ccc1Nc1c(F)c(C#N)c(F)c(F)c1C#N [Compound C-88],–,protectant activity against cucumber downy mildew in vivo (dose 50 mg/L): 98%
N#Cc1ccc(Nc2c(Cl)c(Cl)c(C#N)c(C#N)c2Cl)cc1C(F)(F)F [Compound A-27],100%,–
N#Cc1c(Cl)c(Cl)c(Nc2ccc(F)c(F)c2F)c(Cl)c1C#N [Compound A-41],100%,–
Cc1ccc(Nc2c(Cl)c(Cl)c(C#N)c(C#N)c2Cl)nc1 [Compound A-81],100%,–
CNC(=O)c1cc(Cl)cc(C)c1Nc1c(Cl)c(C#N)c(Cl)c(Cl)c1C#N [Compound C-56],100%,–
N#Cc1c(Cl)c(Cl)c(Nc2ccc(Br)cn2)c(Cl)c1C#N [Compound A-79],100%,protectant activity against cucumber downy mildew in vivo (dose 100 mg/L): 100%
N#Cc1c(Cl)c(Cl)c(Nc2ccc(C(F)(F)F)cc2Cl)c(Cl)c1C#N [Compound A-17],100%,–
N#Cc1ccc(Nc2c(Cl)c(C#N)c(Cl)c(Cl)c2C#N)cc1C(F)(F)F [Compound C-38],100%,protectant activity against cucumber downy mildew in vivo (dose 100 mg/L): 100% and 90%
N#Cc1c(Cl)c(Cl)c(Nc2c(Cl)cncc2Cl)c(C#N)c1Cl [Compound B-139],100%,the protectant activity (%) against cucumber downy mildew (12.5 mg/L): 100%; the protectant activity (%) against cucumber downy mildew (25 mg/L): 98%; the protectant activity (%) against cucumber downy mildew (50 mg/L): 98%; the protectant activity (%) against cucumber downy mildew (100 mg/L): 100%; protectant activity against cucumber downy mildew in vivo (dose 12.5 mg/L): 98%; protectant activity against cucumber downy mildew in vivo (dose 50 mg/L): 98%; protectant activity against cucumber downy mildew in vivo (dose 100 mg/L): 100%
N#Cc1c(Cl)c(Cl)c(Nc2ccc([N+](=O)[O-])cc2F)c(Cl)c1C#N [Compound A-14],100%,protectant activity against cucumber downy mildew in vivo (dose 25 mg/L): 100%; protectant activity against cucumber downy mildew in vivo (dose 50 mg/L): 100%; protectant activity against cucumber downy mildew in vivo (dose 100 mg/L): 100%
Cc1ccnc(Nc2c(Cl)c(Cl)c(C#N)c(C#N)c2Cl)c1 [Compound A-80],100%,protectant activity against cucumber downy mildew in vivo (dose 100 mg/L): 100%
COc1cc([N+](=O)[O-])ccc1Nc1c(Cl)c(C#N)c(Cl)c(Cl)c1C#N [Compound C-35],100%,–

SMILES,protectant activity against cucumber downy mildew in vivo (dose 400 mg/L),also measured
N#Cc1ccc(Nc2c(Cl)c(C#N)c(Cl)c(Cl)c2C#N)cc1 [Compound C-12],100%,–
N#Cc1ccc(Nc2c(Cl)c(Cl)c(C#N)c(Cl)c2C#N)cc1 [Compound B-10],100%,–
COC(=O)c1ccc(Nc2c(Cl)c(Cl)c(C#N)c(Cl)c2C#N)cc1 [Compound B-13],100%,–
N#Cc1c(Cl)c(Cl)c(C#N)c(Nc2ccc(F)c(F)c2F)c1Cl [Compound C-51],100%,–
Cc1cccc(Cl)c1Nc1c(Cl)c(Cl)c(C#N)c(Cl)c1C#N [Compound B-23],100%,–
N#Cc1c(Cl)c(Cl)c(C#N)c(Nc2cc(C(F)(F)F)ccc2Cl)c1Cl [Compound C-32],100%,–
N#Cc1c(Cl)c(Cl)c(Nc2cc([N+](=O)[O-])ccc2Cl)c(Cl)c1C#N [Compound A-16],100%,–
N#Cc1c(Cl)c(Cl)c(Nc2c(Br)cc([N+](=O)[O-])cc2Br)c(Cl)c1C#N [Compound A-45],100%,protectant activity against cucumber downy mildew in vivo (dose 25 mg/L): 100%; protectant activity against cucumber downy mildew in vivo (dose 50 mg/L): 100%; protectant activity against cucumber downy mildew in vivo (dose 100 mg/L): 100%
N#Cc1c(F)c(F)c(C#N)c(Nc2c(Br)cc([N+](=O)[O-])cc2Br)c1F [Compound C-96],–,protectant activity against cucumber downy mildew in vivo (dose 50 mg/L): 98%
N#Cc1c(F)c(F)c(Nc2c(Cl)cc([N+](=O)[O-])cc2Cl)c(C#N)c1F [Compound B-109],100%,protectant activity against cucumber downy mildew in vivo (dose 50 mg/L): 100%; protectant activity against cucumber downy mildew in vivo (dose 100 mg/L): 100%
CNC(=O)c1cc(Cl)cc(C)c1Nc1c(Cl)c(Cl)c(C#N)c(Cl)c1C#N [Compound B-62b],100%,–
Cc1cc(Cl)ccc1Nc1c(Cl)c(Cl)c(C#N)c(Cl)c1C#N [Compound B-22],100%,–
N#Cc1ccc(Nc2c(Cl)c(Cl)c(C#N)c(Cl)c2C#N)cc1C(F)(F)F [Compound B-40],100%,the protectant activity (%) against cucumber downy mildew (12.5 mg/L): 30%; the protectant activity (%) against cucumber downy mildew (25 mg/L): 98%; the protectant activity (%) against cucumber downy mildew (50 mg/L): 100%; the protectant activity (%) against cucumber downy mildew (100 mg/L): 100%; protectant activity against cucumber downy mildew in vivo (dose 50 mg/L): 100%; protectant activity against cucumber downy mildew in vivo (dose 100 mg/L): 100%
N#Cc1cc([N+](=O)[O-])cc(Br)c1Nc1c(F)c(C#N)c(F)c(F)c1C#N [Compound C-97],100%,–
N#Cc1c(F)c(F)c(C#N)c(Nc2ccc([N+](=O)[O-])cc2)c1F [Compound C-70],100%,–
N#Cc1c(Cl)c(Cl)c(Nc2ncc(C(F)(F)F)cc2Cl)c(C#N)c1Cl [Compound B-125],100%,protectant activity against cucumber downy mildew in vivo (dose 50 mg/L): 98%; protectant activity against cucumber downy mildew in vivo (dose 100 mg/L): 100%
Cc1c(Cl)c([N+](=O)[O-])cc([N+](=O)[O-])c1Nc1c(Cl)c(Cl)c(C#N)c(C#N)c1Cl [Compound A-61],100%,–
N#Cc1c(Cl)c(Cl)c(Nc2cccc(Cl)c2Cl)c(C#N)c1Cl [Compound B-16],100%,–
N#Cc1c(F)c(F)c(C#N)c(Nc2ccc([N+](=O)[O-])cc2F)c1F [Compound C-79],100%,–
N#Cc1c(Cl)c(Cl)c(C#N)c(Nc2ccc(C(F)(F)F)cc2Cl)c1Cl [Compound C-30],100%,protectant activity against cucumber downy mildew in vivo (dose 100 mg/L): 90%
